Data as given in patent US20100029652A1, “Combination Therapy For Treating Hepatitis C Infections” (ACHILLION PHARMACEUTICALS, INC., priority 2007, published 2010).

Assays:
[1] = tested on: HCV replicon in Huh-9-13 cells; test: Long term combination study: replicon curing assay, colony formation after G418 selection; assay type: cell-based, hepatitis C virus; conditions: approximately 5×EC50
Procedure: In other repetitions of this experiment, treatment time varied from 7 to 10 days. Cells were passaged once every 3 days into new plates at the same density (10^5 cells/plate) and with fresh compounds. No G418 was present during the 9 day treatment. On day 10, the cells were passaged again to new plates at a density of 10^5 cells/plate, respectively, and were treated only with G418 for approximately 3 more weeks. […] During the 2˜3 weeks, the old media were replaced with fresh media twice a week. The colonies were fixed with 10% formaldehyde and stained with 2% crystal violet in 20% ethanol.
In this assay, the number of the cells in which the replicons still remained after the 9-day treatment was quantified based on the number of the colonies formed after G418 selection.

[2] = tested on: HCV replicon (subtype 1b, Con-1) in Huh-luc/neo cells; test: Short term combination study: HCV replicon luciferase assay in Huh-luc/neo cells, 3-days treatment; assay type: cell-based, hepatitis C virus; conditions: for CI (SD) at Replicon inhibition of 50% / CI (SD) at Replicon inhibition of 75% / CI (SD) at Replicon inhibition of 90%: combined with ACH-806, Chou and Talalay; for CI (SD) at Replicon inhibition of 50% / CI (SD) at Replicon inhibition of 75% / CI (SD) at Replicon inhibition of 90% / Overall combinatory antiviral activity / Volume (SD) Antagonism / Volume (SD) Synergy: 3-days treatment; for Overall combinatory antiviral activity / Volume (SD) Antagonism / Volume (SD) Synergy: drug combined with ACH-806; for Volume (SD) Antagonism / Volume (SD) Synergy: Prichard and Shipman model; for combination effect on antiviral activity: in combination with ACH-806, Huh-luc/neo cells treated for 3 days
Procedure: Huh-luc/neo cells were seeded in 96-well plates at a density of 7000 cells/per well. […] Dose-response curves for the individual compounds and their combinations were all run in quadruplicate.
The experimental data were analyzed using CalcuSyn (Biosoft, Ferguson, Mo.), a computer program based on the method of Chou and Talalay (Chou, T. C. and P. Talalay, Quantitative analysis of dose-effect relationships: the combined effects of multiple drugs or enzyme inhibitors (1984) Adv. Enzyme Regul. 22: 27-55). In this model, the dose-effect curves for each drug or drug combination are converted to median-effect plots with the program. The effect of combination is then compared to that of a single agent. A combination index (CI) value for each experimental combination is calculated on the basis of the following equation:
CI=[(D)1/(Dx)1]+[(D)2/(Dx)2]+[(D)1(D)2/(Dx)1(Dx)2],
By convention a CI of <0.9 is considered synergistic, a CI of ≧0.9 or ≦1.1 is considered additive, and a CI of >1.1 is deemed antagonistic.
The extent of synergy or antagonism was also assessed in a three-dimensional analytical method developed by Prichard and Shipman (Prichard, M. Shipman, K., A three-dimensional model to analyze drug-drug interactions, (1990) Antiviral Res. 14: 181-206). In this model, the theoretical additive effect is calculated from the dose-response curves of individual compounds by the equation Z=X+Y(1−X), where X and Y represent the inhibition produced by drug 1 alone and drug 2 alone, and respectively Z represents the effect produced by the combination of drug 1 and drug 2. The theoretical additive surface is subtracted from the actual experimental surface, resulting in a surface that would appear as a horizontal plane at 0% inhibition if the combination were merely additive. Any peak above this plane would indicate synergy, whereas any depression below it would indicate antagonism. The 95% confidence intervals for the experimental dose-response surface are used to evaluate the data statistically. The volume of the peak or depression is calculated to quantify the overall synergy or antagonism produced. Based on Prichard et al., volumes of synergy greater than 50 μM^2% may be considered significant as may volumes of antagonism of less than −50 μM^2%, wherein the units of the X and Y axis are both μM and the unit of the Z axis is the percentage of inhibition. Results

[3] = single agent by itself, 9-day treatment
[4] = in combination with ACH-806, 9-day treatment

SMILES | log reduction of replicon-containing cells [1, 3] [log] | replicon-containing cells cured [1, 3] | log reduction of replicon-containing cells [1, 4] [log] | replicon-containing cells cured [1, 4] [%] | CI (SD) at Replicon inhibition of 50% ([2]; molar ratio 1:16) | CI (SD) at Replicon inhibition of 75% ([2]; molar ratio 1:16) | CI (SD) at Replicon inhibition of 90% ([2]; molar ratio 1:16) | CI (SD) at Replicon inhibition of 50% ([2]; molar ratio 1:32) | CI (SD) at Replicon inhibition of 75% ([2]; molar ratio 1:32) | CI (SD) at Replicon inhibition of 90% ([2]; molar ratio 1:32) | Overall combinatory antiviral activity [2] | Volume (SD) Antagonism [2] | Volume (SD) Synergy [2] | combination effect on antiviral activity [2] | CI (SD) at Replicon inhibition of 50% ([2]; molar ratio 1:10) | CI (SD) at Replicon inhibition of 75% ([2]; molar ratio 1:10) | CI (SD) at Replicon inhibition of 90% ([2]; molar ratio 1:10) | CI (SD) at Replicon inhibition of 50% ([2]; molar ratio 1:20) | CI (SD) at Replicon inhibition of 75% ([2]; molar ratio 1:20) | CI (SD) at Replicon inhibition of 90% ([2]; molar ratio 1:20)
CCCCCOc1ccc(NC(=S)NC(=O)c2cccnc2)cc1C(F)(F)F [ACH-806] | 1 | about 90% | – | – | – | – | – | – | – | – | – | – | – | – | – | – | – | – | – | –
CC1(O)C(O)C(CO)OC1n1ccc(N)nc1=O (centres unmarked) [NM-107] | 1 | about 90% | 4 | ~99.99 | 0.69 (0.02) | 0.72 (0.06) | 0.79 (0.12) | 0.67 (0.07) | 0.71 (0.05) | 0.83 (0.25) | Synergy | 2 (2) μM^2% | 116 (77) μM^2% | synergistic antiviral activity | – | – | – | – | – | –
CCC[C@H](NC(=O)[C@@H]1[C@H]2CCC[C@H]2CN1C(=O)[C@@H](NC(=O)[C@@H](NC(=O)c1cnccn1)C1CCCCC1)C(C)(C)C)C(=O)C(=O)NC1CC1 [VX-950, telaprevir] | – | – | – | – | – | – | – | – | – | – | Synergy | 8 (3) μM^2% | 119 (4) μM^2% | synergistic antiviral activity | 0.86 (0.09) | 0.82 (0.11) | 0.83 (0.13) | 0.79 (0.06) | 0.61 (0.12) | 0.50 (0.15)
